# Paper PMC12907944, “Targeting RAD51-BRCA2 Interaction to Enhance Synthetic Lethality with Olaparib in Pancreatic Cancer: Development of a Novel Phenyl Furan-Quinoline-Carboxylic Acid Series” (ACS Medicinal Chemistry Letters, 2026)
# How the values were obtained:
# BxPC-3 cells = experiment: cell viability (CellTiter-Glo), combination with olaparib, Interaction Index; assay type: cell-based, human; conditions: for Combination studies with olaparib: combination effect: BxPC-3 cells
# [1] = tested on: homologous recombination in BxPC-3 cells; experiment: HR Quick Assay (HR-QA); assay type: cell-based; conditions: Homo sapiens
# kinetic solubility = assay type: physicochemical; conditions: PBS, aqueous buffer, kinetic from dmso stock
# [2] = tested on: RAD51 foci formation in BxPC-3 cells; experiment: RAD51 foci immunofluorescence after cisplatin; assay type: cell-based, human
# [3] = tested on: normal pancreatic epithelial H-6037 cells; experiment: cell viability, combination with olaparib; assay type: cell-based, human; conditions: 19/ola combination, 6-day
# γ-H2AX in BxPC-3 cells = experiment: γ-H2AX immunofluorescence; assay type: cell-based, human; conditions: BxPC-3, 72 h, 19 + ola combination
# BxPC-3 3D spheroids = experiment: 3D spheroids cell viability (MTT) and volume; assay type: cell-based, human; conditions: BxPC-3 spheroids, 60 μM compound alone
# [4] = tested on: homologous recombination in HEK-293 cells; experiment: m-Clover Lamin A assay (mCl-HR); assay type: cell-based, human
smiles,measurement,setting,value
Cc1ccc2nc(-c3ccc(-c4ccccc4)s3)cc(C(=O)O)c2c1 [Compound 20],cell viability reduction,"BxPC-3 cells; BxPC-3, 5 µM compound in combination with olaparib, 144 h",≈ 40%
same,Combination studies with olaparib: combination effect,BxPC-3 cells; 144 h,additive (a result ranging from 0.8 to 1.2 denotes an additive effect)
same,inhibition at 20 µM,"[1]; BXPC-3, maximum inhibition",89%
CCc1ccc2nc(-c3ccc(-c4ccccc4)o3)cc(C(=O)O)c2c1 [Compound 16],cell viability reduction,"BxPC-3 cells; BxPC-3, compound alone at 40 µM",40%
same,Combination studies with olaparib: combination effect,BxPC-3 cells; 144 h,additive (a result ranging from 0.8 to 1.2 denotes an additive effect)
same,inhibition at 80 µM,"[1]; BXPC-3, maximum inhibition",76%
Nc1ccc2nc(-c3ccc(-c4ccccc4)o3)cc(C(=O)O)c2c1 [Compound 17],Combination studies with olaparib: combination effect,BxPC-3 cells; 144 h,additive (a result ranging from 0.8 to 1.2 denotes an additive effect)
same,inhibition at 20 µM,"[1]; BXPC-3, maximum inhibition",77%
Cc1ccc2nc(-c3ccc(-c4ccccc4C(=O)O)o3)cc(C(=O)O)c2c1 [Compound 1],solubility kinetic,kinetic solubility,234 ± 9 µM
same,Combination studies with olaparib: combination effect,BxPC-3 cells; 144 h,additive (a result ranging from 0.8 to 1.2 denotes an additive effect)
same,inhibition at 100 µM,"[1]; BXPC-3, at 100 μM",4%
same,inhibition at 50 µM,"[1]; BXPC-3, maximum inhibition, at 50 μM",35%
COc1ccc2nc(-c3ccc(-c4ccccc4)o3)cc(C(=O)O)c2c1 [Compound 19],solubility kinetic,kinetic solubility,> 250 µM
same,RAD51-labelled nuclei,"[2]; BxPC-3, 19 and CPL (50 μM cisplatin)",22%
same,effect on cell viability of normal cells,[3],no significant effect
same,Combination w/ola in BxPC-3 cells,"BxPC-3 cells; BxPC-3, Table S2",Synergism
same,inhibition at 80 µM,"[1]; BXPC-3, maximum inhibition",81%
same,IC50,[1]; multiple-dose HR-QA,21.7 ± 1.81 µM
same,γ-H2AX-labelled nuclei,γ-H2AX in BxPC-3 cells,> 40%
same,impact on spheroid volume,BxPC-3 3D spheroids,no significant impact
same,mClover-positive cells,"[4]; HEK-293, 40 μM",~4%
same,inhibition at 40 µM,"[4]; Homo sapiens, HEK293, HEK-293, 40 μM",~74%
Cc1ccc2nc(-c3ccc(-c4ccccc4F)o3)cc(C(=O)O)c2c1 [Compound 8],inhibition at 60 µM,"[1]; BXPC-3, maximum inhibition, at 60 μM",39%
O=C(O)c1cc(-c2ccc(-c3ccccc3)o2)nc2ccc(O)cc12 [Compound 18],inhibition at 20 µM,"[1]; BXPC-3, maximum inhibition",≤ 60%
Cc1ccc2nc(-c3ccc(-c4ccccc4)o3)cc(C(=O)O)c2c1 [Compound 4],Combination studies with olaparib: combination effect,BxPC-3 cells; 144 h,additive (a result ranging from 0.8 to 1.2 denotes an additive effect)
same,inhibition at 80 µM,"[1]; BXPC-3, maximum inhibition",63%
"N.N.[Cl][Pt][Cl] [CPL, cisplatin, reference compound]",RAD51-labelled nuclei,"[2]; BxPC-3, CPL alone (50 μM cisplatin)",56%
